The experiment deals with NCI-H510 multicellular tumor spheroid growth, % test/control. As to the kind of experiment: Anticancer human tumor NCI-H510 cell line growth inhibition [Asc].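 For all read-outs here: spheroids exposed to agents for 7 days.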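 For viability, T/C: 100% = DMSO vehicle control wells.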 Particulars: for viability, T/C: stronger effect = lower value. The method, then: Multicellular complex tumor spheroid response to apoptosis pathway targeting inhibitors Alrizomadlin, Pelcitoclax, and Dasminapant in combination with a variety of drugs and investigational agents in selected tumor cell lines
The MDM2 inhibitor alrizomadlin, the Bcl-2/Bcl-xL inhibitor pelcitoclax, and the IAPs inhibitor dasminapant were evaluated both individually and in combination with standard of care and investigational anticancer small molecules within a complex spheroid model of solid tumors. . Complex spheroids include a stromal component modeled by human endothelial cells (HUVEC) and fibroblasts modeled by human mesenchymal stem cells (MSCs). The concentration ranges selected for each drug and investigational agent were based upon clinically achievable concentrations if the clinical Cmax of the agent was known.
Compounds. The drugs and investigational agents: alrizomadlin (APG-115; NSC831270), pelcitoclax (APG-1252; NSC835773), dasminapant (APG-1387;NSC834197), TAK-243 (NSC785004), copanlisib (NSC809693), olaparib (NSC753686), talazoparib (NSC767125), cobimetinib (NSC 768068), eltanexor (KPT-8602, NSC 794443), abemaciclib (NSC 768073), sotorasib (NSC818433), adagrasib (NSC 831453), MRTX-1133 (NSC 836407), Iadademestat (ORY1001, NSC 806812), and RMC-4630 (NSC839698), were obtained from the NCI Developmental Therapeutics Program Chemical Repository. The FDA-approved anticancer drug set is available from the Developmental Therapeutics Program at https://dtp.cancer.gov/organization/dscb/obtaining/available plates.htm. […] The stock solutions were prepared in dimethyl sulfoxide (DMSO, Sigma-Aldrich, St. Louis, MO, cat. D2650) at 800-fold the tested concentration and stored at -70 degrees C prior to their use. All drugs and investigational agents were tested over a range starting from a high concentration at or near the clinical Cmax and decreasing in half-log increments. If the clinical Cmax for an agent had not been determined, the highest concentration tested was 10 microM.
The patient-derived cancer (PDC) cell lines include five colon adenocarcinomas: 186277-243-T-J2-PDC, 616215-338-R-J1-PDC, 439559-082-T-J2-PDC, 463943-066-T-J2-PDC, and 519858-162-T-J1-PDC; three pancreatic carcinomas: 323965-272-R-J2-PDC, 521955-158-R6-J3-PDC, and 521955-158-R2-J5-PDC; two uterine sarcomas: 327498-152-R-J2-PDC and 993429-296-R-J1-PDC; two rhabdomyosarcomas: 755483-174-R-J1-PDC and 772245-204-R-J1-PDC; two soft tissue sarcomas: 126254-015-R-J1-PDC and 494315-158-R-J1-PDC; two malignant fibrous histiocytomas: 317291-083-R-J1-PDC and 596521-263-R-J1-PDC; two breast carcinomas: 171881-019-R-J1-PDC and 885512-296-R-J2-PDC; and one ovarian carcinoma: 6556581-035-R-J-PDC were obtained from the NCI PDMR, (https://pdmr.cancer.gov). The established cell lines HSSY-2 synovial sarcoma (RRID:CVCL 8719), SYO-1 synovial sarcoma (RRID:CVCL_7146), MPNST malignant peripheral neural sheath tumor were obtained from the Sloan Kettering Institute. The following established cell lines were purchased from the American Type Culture Collection (ATCC, Manassas, VA), Sor the received from the NCI repository:, PANC-1 pancreatic carcinoma (CRL-1469, RRID:CVCL_0480), OVCAR-5 ovarian carcinoma (RRID:CVCL_1628), OVCAR-8 ovarian carcinoma (RRID:CVCL_1629), , MCF-7 breast carcinoma (CRL-12584, RRID:CVCL_0031), MDA-MB-231 breast carcinoma (CRL-12532, RRID:CVCL_0062), NCI-H1876 small cell lung carcinoma (CRL-5902, RRID:CVCL_1503), NCI-H510A small cell lung carcinoma (HTB-184, RRID:CVCL_1565), NCI-H1417 (CRL-5869, RRID:CVCL_1469), and NCI-H196 small cell lung carcinoma (CRL-5823, RRID:CVCL_1509). Dr. Peter Houghton (Greehey Children's Cancer Research Institute, University of Texas Health Science Center, San Antonio, TX) provided Rh-18 rhabdomyosarcoma (RRID:CVCL_1659). Pooled donor human umbilical vein endothelial cells (HUVEC, Lonza, cat. CC-2519) and human mesenchymal stem cells (hMSC, Lonza, cat. PT-2501) were purchased from Lonza (Walkersville, MD).
Cell Culture. […]

Where “and” joins values, the source holds several entries; their conditions need not be identical. Equal entries are not always repeated.

One may read the viability, T/C as the result in the treated group divided by that in the control group, in per cent. One may read the IC50 as the concentration needed to halve the response being measured. For the compound `CCN1CCN(Cc2ccc(Nc3ncc(F)c(-c4cc(F)c5nc(C)n(C(C)C)c5c4)n3)nc2)CC1`, the viability, T/C (compound 0.00316 µM) was 99.7% and 83.9% and 97.2%; the viability, T/C (compound 0.01 µM) was 95.4% and 91.7% and 83.9%; the viability, T/C (compound 0.0316 µM) was 104% and 102% and 97.5%; the viability, T/C (compound 0.1 µM) was 93.1% and 78.6% and 112%; the viability, T/C (compound 0.316 µM) is 99.7% and 82.1% and 106%; the viability, T/C (compound 1 µM) was 76.2% and 98% and 106%. Further, the IC50 (curve of compound) was greater than 1 µM.
On to `C=C(F)C(=O)N1CCN(c2nc(OCC3CCCN3C)nc3c2CCN(c2cccc4cccc(Cl)c24)C3)CC1CC#N` (centres undefined), for which the viability, T/C (compound 0.0316 µM) was 109% and 85.9% and 108%; the viability, T/C (compound 0.1 µM) was 87.2% and 84.2% and 92%; the viability, T/C (compound 0.316 µM) is 72.8% and 84.8% and 97.8%; the viability, T/C (compound 1 µM) was 67.5% and 68.6% and 102%; the viability, T/C (compound 3.16 µM) is 1.87% and 8.13% and 16.5%; the viability, T/C (compound 10 µM) was 0.2% and 0.21% and 0.25%. Also, the IC50 (curve of compound) is 1.34 µM and 1.42 µM and 1.99 µM.
`Cc1nc(N2CCC3(CC2)COC(C)C3N)c(CO)nc1Sc1ccnc(N)c1Cl` (centres undefined) + Cc1c(S(C)(=O)=O)c(-c2cc(F)cc(N3CCN(c4ccc(NS(=O)(=O)c5ccc(NC(CCN6CCC(C(=O)OCCCP(=O)(O)O)CC6)CSc6ccccc6)c(S(=O)(=O)C(F)(F)F)c5)cc4)CC3)c2)c(-c2ccc(Cl)cc2)n1C(C)C: the IC50 (curve of first compound, second compound 0.1 µM) was greater than 3 µM; the IC50 (curve of first compound, second compound 0.316 µM) was greater than 3 µM; the IC50 (curve of first compound, second compound 1 µM) was greater than 3 µM; the IC50 (curve of first compound, second compound 3.16 µM) is greater than 3 µM; the IC50 (curve of first compound, second compound 10 µM) is greater than 3 µM. The viability, T/C is 126% (second compound 0.1 µM, first compound 0.00949 µM); 122% (second compound 0.1 µM, first compound 0.03 µM); 112% (second compound 0.1 µM, first compound 0.0949 µM); 111% (second compound 0.1 µM, first compound 0.3 µM); 128% (second compound 0.1 µM, first compound 0.949 µM); 117% (second compound 0.1 µM, first compound 3 µM). Besides, the viability, T/C reads like this: (second compound 0.316 µM, first compound 0.00949 µM) 125%; (second compound 0.316 µM, first compound 0.03 µM) 130%; (second compound 0.316 µM, first compound 0.0949 µM) 136%; (second compound 0.316 µM, first compound 0.3 µM) 127%; (second compound 0.316 µM, first compound 0.949 µM) 111%; (second compound 0.316 µM, first compound 3 µM) 132%. Further, the viability, T/C by setting is: (second compound 1 µM, first compound 0.00949 µM) 92.8%; (second compound 1 µM, first compound 0.03 µM) 139%; (second compound 1 µM, first compound 0.0949 µM) 122%; (second compound 1 µM, first compound 0.3 µM) 102%; (second compound 1 µM, first compound 0.949 µM) 118%; (second compound 1 µM, first compound 3 µM) 130%. Also, the viability, T/C by setting is: (second compound 3.16 µM, first compound 0.00949 µM) 132%; (second compound 3.16 µM, first compound 0.03 µM) 128%; (second compound 3.16 µM, first compound 0.0949 µM) 137%; (second compound 3.16 µM, first compound 0.3 µM) 123%; (second compound 3.16 µM, first compound 0.949 µM) 119%; (second compound 3.16 µM, first compound 3 µM) 118%. Further, the viability, T/C by setting is: (second compound 10 µM, first compound 0.00949 µM) 133%; (second compound 10 µM, first compound 0.03 µM) 123%; (second compound 10 µM, first compound 0.0949 µM) 125%; (second compound 10 µM, first compound 0.3 µM) 94%; (second compound 10 µM, first compound 0.949 µM) 114%; (second compound 10 µM, first compound 3 µM) 95.2%.
